Active and inactive are the calls of the source. How the calls were made is not given here.
System: CCRIS mutagenicity, Ames/micronucleus/aberration tests
Assay: CCRIS mutagenicity studies

Measured: mutagenic call

NC(=O)N/N=C/c1ccc([N+](=O)[O-])o1
inactive: Test System: AMES SALMONELLA TYPHIMURIUM, Strain/Indicator: TA1535, Metabolic Activation: NONE, Method: PREINCUBATION inactive; negative | Test System: AMES SALMONELLA TYPHIMURIUM, Strain/Indicator: TA1537, Metabolic Activation: RAT, LIVER, S-9, AROCLOR 1254, Method: PREINCUBATION inactive; negative
active: End Point: IN VITRO CHROMOSOMAL ABERRATIONS, Test System: CHO CELLS, Metabolic Activation: NONE active; positive | End Point: IN VITRO CHROMOSOMAL ABERRATIONS, Test System: CHO CELLS, Metabolic Activation: RAT, LIVER, S-9, AROCLOR 1254 active; positive; precipitation occurred at 500 ug/ml | Test System: AMES SALMONELLA TYPHIMURIUM, Strain/Indicator: TA97, Metabolic Activation: NONE, Method: FLUCTUATION TEST active; positive | Test System: AMES SALMONELLA TYPHIMURIUM, Strain/Indicator: TA98(1,8-DNP6), Metabolic Activation: NONE, Method: STANDARD PLATE active; positive | Test System: AMES SALMONELLA TYPHIMURIUM, Strain/Indicator: TA98(1,8-DNP6), Metabolic Activation: RAT, LIVER, S-9, 3-METHYLCHOLANTHRENE, Method: STANDARD PLATE active; positive | Test System: AMES SALMONELLA TYPHIMURIUM, Strain/Indicator: TA98(NR), Metabolic Activation: NONE, Method: STANDARD PLATE active; positive | Test System: AMES SALMONELLA TYPHIMURIUM, Strain/Indicator: TA98(NR), Metabolic Activation: RAT, LIVER, S-9, 3-METHYLCHOLANTHRENE, Method: STANDARD PLATE active; positive | Test System: AMES SALMONELLA TYPHIMURIUM, Strain/Indicator: TA98, Metabolic Activation: HAMSTER, LIVER, S-9, AROCLOR 1254 (10%), Method: PREINCUBATION active; positive | Test System: AMES SALMONELLA TYPHIMURIUM, Strain/Indicator: TA98, Metabolic Activation: HAMSTER, LIVER, S-9, AROCLOR 1254, Method: PREINCUBATION active; positive | Test System: AMES SALMONELLA TYPHIMURIUM, Strain/Indicator: TA98, Metabolic Activation: NONE, Method: PREINCUBATION active; positive | Test System: AMES SALMONELLA TYPHIMURIUM, Strain/Indicator: TA98, Metabolic Activation: NONE, Method: STANDARD PLATE active; positive | Test System: AMES SALMONELLA TYPHIMURIUM, Strain/Indicator: TA98, Metabolic Activation: RAT LIVER S-9, AROCLOR 1254, Method: STANDARD PLATE active; positive | Test System: AMES SALMONELLA TYPHIMURIUM, Strain/Indicator: TA98, Metabolic Activation: RAT, LIVER, S-9, 3-METHYLCHOLANTHRENE, Method: STANDARD PLATE active; positive | Test System: AMES SALMONELLA TYPHIMURIUM, Strain/Indicator: TA98, Metabolic Activation: RAT, LIVER, S-9, AROCLOR 1254 (10%), Method: PREINCUBATION active; positive | Test System: AMES SALMONELLA TYPHIMURIUM, Strain/Indicator: TA98, Metabolic Activation: RAT, LIVER, S-9, AROCLOR 1254, Method: PREINCUBATION active; positive | Test System: AMES SALMONELLA TYPHIMURIUM, Strain/Indicator: TA98, Metabolic Activation: RAT, LIVER, S-9, KC500 OR PHENOBARBITAL, Method: LIQUID SUSPENSION active; positive | Test System: AMES SALMONELLA TYPHIMURIUM, Strain/Indicator: TA100, Metabolic Activation: HAMSTER, LIVER, S-9, AROCLOR 1254 (10%), Method: PREINCUBATION active; positive | Test System: AMES SALMONELLA TYPHIMURIUM, Strain/Indicator: TA100, Metabolic Activation: HAMSTER, LIVER, S-9, AROCLOR 1254, Method: PREINCUBATION active; positive | Test System: AMES SALMONELLA TYPHIMURIUM, Strain/Indicator: TA100, Metabolic Activation: NONE, Method: PREINCUBATION active; positive | Test System: AMES SALMONELLA TYPHIMURIUM, Strain/Indicator: TA100, Metabolic Activation: RAT, LIVER, S-9, AROCLOR 1254 (10%), Method: PREINCUBATION active; positive | Test System: AMES SALMONELLA TYPHIMURIUM, Strain/Indicator: TA100, Metabolic Activation: RAT, LIVER, S-9, AROCLOR 1254, Method: PREINCUBATION active; positive | Test System: AMES SALMONELLA TYPHIMURIUM, Strain/Indicator: TA100, Metabolic Activation: RAT, LIVER, S-9, KC500 OR PHENOBARBITAL, Method: LIQUID SUSPENSION active; positive | Test System: AMES SALMONELLA TYPHIMURIUM, Strain/Indicator: TA102, Metabolic Activation: NONE, Method: STANDARD PLATE active; positive | Test System: AMES SALMONELLA TYPHIMURIUM, Strain/Indicator: TA102, Metabolic Activation: RAT LIVER S-9, AROCLOR 1254, Method: STANDARD PLATE active; positive | Test System: AMES SALMONELLA TYPHIMURIUM, Strain/Indicator: TA1535, Metabolic Activation: HAMSTER, LIVER, S-9, AROCLOR 1254 (10%), Method: PREINCUBATION active; positive | Test System: AMES SALMONELLA TYPHIMURIUM, Strain/Indicator: TA1535, Metabolic Activation: HAMSTER, LIVER, S-9, AROCLOR 1254, Method: PREINCUBATION active; positive | Test System: AMES SALMONELLA TYPHIMURIUM, Strain/Indicator: TA1535, Metabolic Activation: RAT, LIVER, S-9, AROCLOR 1254 (10%), Method: PREINCUBATION active; positive | Test System: AMES SALMONELLA TYPHIMURIUM, Strain/Indicator: TA1535, Metabolic Activation: RAT, LIVER, S-9, AROCLOR 1254, Method: PREINCUBATION active; positive | Test System: E. COLI, Strain/Indicator: EE97, Metabolic Activation: NONE, Method: FLUCTUATION TEST active; positive | Test System: E. COLI, Strain/Indicator: WP2, Metabolic Activation: NONE, Method: FLUCTUATION TEST active; positive | Test System: E. COLI, Strain/Indicator: WP2, Metabolic Activation: NONE, Method: SPOT active; positive | Test System: E. COLI, Strain/Indicator: WP2, Metabolic Activation: NONE, Method: STANDARD PLATE active; positive | Test System: E. COLI, Strain/Indicator: WP2 UVRA, Metabolic Activation: NONE, Method: FLUCTUATION active; positive | Test System: E. COLI, Strain/Indicator: WP2 UVRA, Metabolic Activation: NONE, Method: SPOT active; positive | Test System: E. COLI, Strain/Indicator: WP2 UVRA, Metabolic Activation: NONE, Method: STANDARD PLATE active; positive | Test System: MOUSE LYMPHOMA, Strain/Indicator: L5178Y (TK+/TK-), Metabolic Activation: NONE, Method: SUSPENSION/PLATE active; positive
